Measured values published in article PMC8623467, “Biochemical Characterization of Recombinant Isocitrate Dehydrogenase and Its Putative Role in the Physiology of an Acidophilic Micrarchaeon” (Microorganisms, 2021).

Tested on: T1, MhIDH6x His
T1 construct: gene icd2; full-length; N-terminal 6xHis tag kept (primer: MHHHHHHEEQKKESIS...); C-terminus AIKSA from primer; pBAD202, E. coli Rosetta pRARE; Ni-IMAC and SEC; homodimer only modelled
Experiment: NADPH formation at […] nm, Michaelis-Menten fit
Assay type: biochemical, Candidatus Micrarchaeum harzensis
Settings: 100 mM TRIS/HCl pH 8.0, 28 °C, Mg2+ (5 mM MgCl2 standard mixture)

| Km (20 mM NADP+ (Figure 4 legend)) | Km (1 mM DL-isocitrate) | SMILES |
| --- | --- | --- |
| 53 ± 5.63 µM | – | O=C(O)CC(C(=O)O)C(O)C(=O)O (racemic) [DL-isocitrate] |
| – | 1940 ± 120 µM | NC(=O)c1ccc[n+]([C@@H]2O[C@H](COP(=O)(O)OP(=O)(O)OC[C@H]3O[C@@H](n4cnc5c(N)ncnc54)[C@H](OP(=O)(O)O)[C@@H]3O)[C@@H](O)[C@H]2O)c1 [NADP^+] |
